Measured values as given in US9834535B2, “Sulfamate derivative compounds for use in treating or alleviating pain” (Bio-Pharm Solutions Co., Ltd., priority 2013, dated 2017).

Assays:
[1] = tested on: acetic acid-induced writhes (abdominal constriction); assay: Writhing test (0.6% acetic acid); type: in vivo, ICR mice; conditions: mouse, oral, 0.5 h; read-out: Writ htest: ED50
Procedure: To examine the pain relief effect of the sulfamate derivative compounds, a writhing test was conducted in general pain animal model referring to Fischer, L. G. et al. (2008).
(§1) ICR mice (male, 24-28 g; Orient Bio, Korea) were habituated before test in test room for 1 hour. Animals were fasted 2 hr, before administration of compounds. Compounds was orally administered at the close of 20 mg/kg, 10 ul/g, bw (n=3˜5/group). All compounds were dissolved in a vehicle of 30% (v/v) PEG 400 or 20% (v/v) Tween 80. The control group was treated the vehicle without compounds.
[…] Animals were habituated in the cage for 5 min. 5 min after habituation, the number of writhes (abdominal constriction) for 15 min was counted referring to Korzeniewska-Rybicka, I. et al. (1998) and compared with that of a control.

[2] = tested on: hot plate withdrawal latency; assay: Hot-plate test; type: in vivo, ICR mice; conditions: 200 mg/kg, mouse, oral
Procedure: To examine the pain relief effect of the sulfamate derivative compounds, a hot-plate test was conducted in general pain animal model referring to Current Protocols in Neuroscience; Behavioral Neuroscience Unit 8.9.
as §1, with “30-35 g:” for “24-28 g;”, “hr” for “hr,”, “Compounds was orally administered at the close of 20 mg/kg, 10 ul/g, bw (n=3˜5/group).” left out
[…] (Hu, X. et al, 2008), and then, measured as the withdrawal latency (cut-off time: 30 sec) time until the point when each mouse was taking off a paw from the plate, shaking, licking a paw or hind leg, or jumping from the plate.

CC1(C)O[C@@H](COS(N)(=O)=O)[C@H](c2ccccc2Cl)O1 [Example 2, ((4S,5S)-5-(2-chlorophenyl)-2,2-dimethyl-1,3-dioxolan-4-yl)methyl sulfamate]
ED50 [1]: 28.4 mg/kg
Hot plate test: effect (%) at the concentration administered [2]: ^#200 (123.6%)
